We go through 30 compounds from US20240116850A1, “COMPOSITIONS AND METHODS RELATED TO BICYCLO[2.2.1] HEPTANAMINE-CONTAINING COMPOUNDS” (The Broad Institute, Inc., priority 2020, published 2024).

For experiment [1], the system named is MUC1-wt. In words: High-content imaging assay of MUC1-wt total cytoplasm intensity in P cells. The format is cell-based. Particulars: for EC50: MUC1-wt total cytoplasm intensity, P cells, 48 hr incubation; for WT ECMax: MUC1-wt, DMSO = 0, JQ1 (250 nM) = −100% activity. How it is done:
(§1) P cells were seeded 24 hr prior to compound treatment at a density of 12,000 cells/well in 384 well Cell Carrier Ultra plates (6057308, Perkin Elmer), pre-coated with 0.25 mg/mL Synthemax 11 SC Substrate (3535, Corning). Compounds were used at 5 doses (35, 3.5, 0.35, 0.035 and 0.0035 μM) for the primary screen and 10 doses (16, 5.6, 1.8, 0.6, 0.21, 0.07, 0.02, 0.008, 0.002 and 0.0008 μM) for the following screens. The compounds, in two replicates, were transferred from compound source plates to the cell plates using the HighRes Pin Tool. DMSO was used as a negative control and JQ1 (250 nM) (a bromodomain inhibitor) was chosen as a positive control, based on earlier studies showing its potent effect on reducing total MUC1 mRNA levels (data not shown). After 48 hr incubation, cells were fixed for 20 min in 4% PFA (Electron Microscopy Sciences) in PBS, washed twice, then permeabilized (10 min) with 0.5% Triton-X100 (X100-100MVL, Sigma-Aldrich) in PBS and washed once more. Cells were blocked for 10 min at RT with Blocking solution (100 mM Tris HCL pH8; l150 mM NaCL; 5 g/L Blocking Reagent [11096176001, Roche]), then incubated 90 min at RT with one of the following primary antibodies in Roche Blocking solution: 1:500, monoclonal Fab-A-V5H anti-MUC1-fs, AbD22655.2, Bio-Rad; 1:2000, monoclonal mouse anti-MUC1 (214D4), 05-652-KC, Millipore; 1:1000, monoclonal, Rabbit anti-GM130 (D6B1) XP, 12480, Cell signaling technology. The primary antibody cocktail was incubated at RT for 1.5 hr, followed by four PBS wash cycles. The secondary antibody cocktail contained four components that were all prepared at a 1:1000 dilution in the Roche blocking solution and consisted of Alexa Fluor® 488-conjugated AffiniPure F(ab′)2 Fragment Goat anti-Human IgG, 109-546-097, Jackson Immunoresearch; Alexa Fluor® 647-conjugated Goat anti-Rabbit IgG, A-21246, Thermo Fisher Scientific®; Alexa Fluor® 546 Goat anti-mouse IgG, A-21123, Thermo Fisher Scientific® and Hoechst 33342 stain (62249, Thermo Fisher Scientific®). The secondary antibody cocktail was incubated at RT for 45 min, followed by four PBS wash cycles. Finally, plates were sealed with a Plate Loc plate and stored in Liconic incubator at 10° C. until imaging. Following image analysis, three parameters were selected, i) MUC1-fs and ii) MUC1-wt total cytoplasm intensity (averaged per cell) and iii) cell number as was detected by Hoechst 33342 stained nuclei. The levels of MUC1-fs and MUC1-wt found following DMSO and JQ1 were defined as 0 and −100% activity, respectively. The values obtained for all compounds were normalized accordingly. Cell number was normalized to DMSO control.
(§2) The pure enantiomers were profiled in the high-content imaging assay for the ability to reduce the amount of FS MUC1 protein in the cytoplasm (Table 48) following the procedure of Example 4.

Experiment [2] concerns MUC1-fs. The experiment is described as follows: High-content imaging assay of MUC1-fs total cytoplasm intensity in P cells. The experiment is classed as cell-based. Particulars: for EC50: MUC1-fs total cytoplasm intensity, P cells, 48 hr incubation; for ECMax: MUC1-fs, DMSO = 0, JQ1 (250 nM) = −100% activity. How it is done: as §1, §2
Setting [3] is: high-content imaging assay, procedure of Example 4.

For `CC(C)C1C2CCC(C2)C1N.Cl` (racemic) [BRD4780, rac-3-exo-isopropylbicyclo[2.2.1]heptan-2-endo-amine hydrochloride, reference compound], the “reduction in wild-type MUC1 levels” value in experiment [1] (setting [3]) is given as “no observed reduction”.

Usually EC50 stands for the concentration needed to bring the measured effect to its halfway point. Higher therefore signals weaker potency. As to `CC(C)[C@H]1[C@H]2CC[C@H](C2)[C@H]1N.Cl` (racemic) [Compound 103, rac-3-endo-isopropylbicyclo[2.2.1]heptan-2-endo-amine hydrochloride], in experiment [1], the concentration for a half-maximal effect (EC50) is greater than 32 µM and the “WT ECMax” value is −13.31%. Besides, in experiment [2], a half-maximal response (EC50) required 2.14 µM and the ECMax is given as −83.25%.

`CCC[C@@H]1[C@H]2CC[C@H](C2)[C@H]1N.Cl` (racemic) [Compound 107-rac]: in experiment [1], the EC50 is greater than 32 µM and the “WT ECMax” value was found to be 8.64%. Further, in experiment [2], the EC50 was greater than 32 µM and the ECMax is 10.08%.

Take `CCC[C@H]1[C@H]2CC[C@H](C2)[C@@H]1N.Cl` (racemic) [Compound 108-rac]: in experiment [1], the EC50 is greater than 32 µM and the “WT ECMax” value is −4.32%. In addition, in experiment [2], the EC50 was greater than 32 µM and the ECMax is listed as −8.01%.

For `Cl.N[C@@H]1[C@@H]2CC[C@@H](C2)[C@H]1C1CC1` (racemic) [Compound 109], in experiment [1], the EC50 is greater than 32 µM and the “WT ECMax” value is recorded as −12.5%. Moreover, in experiment [2], the EC50 is 0.45 µM and the ECMax is listed as −73.56%.

Consider `CC(C)C[C@@H]1[C@H]2CC[C@H](C2)[C@H]1N.Cl` (racemic) [Compound 111], for which, in experiment [1], the EC50 is greater than 32 µM and the “WT ECMax” value worked out at 10.58%. Moreover, in experiment [2], the concentration for a half-maximal effect (EC50) is greater than 32 µM and the ECMax is −9.02%.

Regarding `CC(C)C[C@H]1[C@H]2CC[C@H](C2)[C@@H]1N.Cl` (racemic) [Compound 112], in experiment [1], the concentration for a half-maximal effect (EC50) was greater than 32 µM and the “WT ECMax” value is −8.84%. In experiment [2], the EC50 is greater than 32 µM and the ECMax amounted to 18.48%.

For the compound `Cl.N[C@@H]1[C@@H]2CC[C@@H](C2)[C@H]1C1CCC1` (racemic) [Compound 113], in experiment [1], the concentration giving a half-maximal response (EC50) was greater than 32 µM and the “WT ECMax” value amounted to 13.12%. In experiment [2], the midpoint of the response, the EC50, lay at 0.478 µM and the ECMax was −46.53%.

On to `Cl.N[C@H]1[C@@H]2CC[C@@H](C2)[C@@H]1C1CCC1` (racemic) [Compound 114-rac], for which, in experiment [1], the EC50 was greater than 32 µM and the “WT ECMax” value was determined as 18.3%. Also, in experiment [2], the EC50 worked out at 12.9 µM and the ECMax is listed as −44.74%.

Turning to `CC(C)(C)[C@@H]1[C@H]2CC[C@H](C2)[C@H]1N.Cl` (racemic) [Compound 115], in experiment [1], the EC50 turned out to be 12.3 µM and the “WT ECMax” value stood at 71.79%. In experiment [2], it took 0.295 µM to reach a half-maximal effect (EC50) and the ECMax is −79.02%.

`Cl.N[C@@H]1[C@@H]2CC[C@@H](C2)[C@H]1C1CCCCC1` (racemic) [Compound 118]: in experiment [1], the EC50 was greater than 32 µM and the “WT ECMax” value is reported as −8.52%. Further, in experiment [2], the EC50 was greater than 32 µM and the ECMax is on record as −9.08%.

With `Cl.N[C@H]1[C@@H]2CC[C@@H](C2)[C@@H]1C1CCCCC1` (racemic) [Compound 119], in experiment [1], the half-maximal effective concentration (EC50) was greater than 32 µM and the “WT ECMax” value came to 14.48%. Further, in experiment [2], the EC50 is greater than 32 µM and the ECMax was determined as 20.39%.

As to `Cl.N[C@@H]1[C@@H]2CC[C@@H](C2)[C@H]1c1ccccc1` (racemic) [Compound 120], in experiment [1], the EC50 was greater than 32 µM and the “WT ECMax” value amounted to 15.88%. For the same compound, in experiment [2], the EC50 was greater than 32 µM and the ECMax is given as −27.71%.

`Cl.N[C@@H]1[C@@H]2CC[C@@H](C2)[C@H]1c1cccs1` (racemic) [Compound 122]: in experiment [1], the EC50 is greater than 32 µM and the “WT ECMax” value is −10.53%. Further, in experiment [2], the EC50 was greater than 32 µM and the ECMax is recorded as −12.17%.

The IC50 is the concentration that gives 50% inhibition. With `CC(C)[C@H]1[C@@H]2CC[C@@H](C2)[C@@H]1N.Cl` (single isomer, unassigned) [BRD4780 Fr1, hydrochloride], the half-maximal inhibitory concentration (IC50) in experiment [2] (setting [3]) turned out to be 0.156 µM; in experiment [2] (second pair of columns (c3-c4)), 9.2 µM.

Take `CC(C)[C@H]1[C@@H]2CC[C@@H](C2)[C@@H]1N.Cl` (single isomer, unassigned) [BRD4780 Fr1]: the “FS MUC1 cytoplasm EMax (%)” value in experiment [2] (setting [3]) is reported as −42%; in experiment [2] (second pair of columns (c3-c4)), 113%.

As for `CC(C)[C@@H]1[C@H]2CC[C@H](C2)[C@H]1N.Cl` (single isomer, unassigned) [BRD4780 Fr2, hydrochloride], the IC50 in experiment [2] (setting [3]) was determined as 0.175 µM; in experiment [2] (second pair of columns (c3-c4)), 12.6 µM.

For the compound `CC(C)[C@@H]1[C@H]2CC[C@H](C2)[C@H]1N.Cl` (single isomer, unassigned) [BRD4780 Fr2], the entries for the “FS MUC1 cytoplasm EMax (%)” value in experiment [2] (setting [3]) and in experiment [2] (second pair of columns (c3-c4)) were −46% and 60%, respectively.

Consider `C[C@@H]1[C@H]2CC[C@H](C2)[C@H]1N.Cl` (single isomer, unassigned) [Compound 104-P1, (1R,2R,3R,4S)-3-methylbicyclo[2.2.1]heptan-2-amine hydrochloride], for which the EC50 in experiment [1] is greater than 32 µM; in experiment [2], 19.6 µM.

For the compound `C[C@@H]1[C@H]2CC[C@H](C2)[C@H]1N.Cl` (single isomer, unassigned) [Compound 104-P1], the “WT ECMax” value in experiment [1] was −13.75%. In addition, the ECMax in experiment [2] is −47.64%.

Consider `C[C@@H]1[C@H]2CC[C@H](C2)[C@H]1N.Cl` (single isomer, unassigned) [Compound 104-P2, hydrochloride], for which the EC50 in experiment [1] was greater than 32 µM; in experiment [2], 4.5 µM.

As to `C[C@@H]1[C@H]2CC[C@H](C2)[C@H]1N.Cl` (single isomer, unassigned) [Compound 104-P2], the “WT ECMax” value in experiment [1] is −14.86%. The ECMax in experiment [2] was −78.16%.

Take `Cl.N[C@@H]1[C@@H]2CC[C@@H](C2)[C@H]1C1CC1` (single isomer, unassigned) [Compound 109-P1]: in experiment [1], the 50% effective concentration (EC50) was greater than 32 µM and the “WT ECMax” value is listed as 9.06%. In experiment [2], the concentration for a half-maximal effect (EC50) was greater than 32 µM and the ECMax is reported as −32.29%.

With `Cl.N[C@H]1[C@H]2CC[C@H](C2)[C@@H]1C1CC1` (single isomer, unassigned) [Compound 109-P2], in experiment [1], the EC50 was greater than 32 µM and the “WT ECMax” value is given as −14.32%. For the same compound, in experiment [2], the EC50 was found to be 0.52 µM and the ECMax is −74.31%.

As to `Cl.N[C@H]1[C@@H]2CC[C@@H](C2)[C@@H]1C1CC1` (single isomer, unassigned) [Compound 110-P1, (1R,2S,3S,4S)-3-cyclopropylbicyclo[2.2.1]heptan-2-amine hydrochloride], the EC50 was greater than 32 µM in experiment [1] and 8.49 µM in experiment [2].

Consider `Cl.N[C@H]1[C@@H]2CC[C@@H](C2)[C@@H]1C1CC1` (single isomer, unassigned) [Compound 110-P1], for which, in experiment [1], the “WT ECMax” value was −8.95%. Besides, the ECMax in experiment [2] was −50.96%.

Regarding `Cl.N[C@@H]1[C@H]2CC[C@H](C2)[C@H]1C1CC1` (single isomer, unassigned) [Compound 110-P2, (1S,2R,3R,4R)-3-cyclopropylbicyclo[2.2.1]heptan-2-amine hydrochloride], the EC50 in experiment [1] was greater than 32 µM; in experiment [2], 3.38 µM.

Consider `Cl.N[C@@H]1[C@H]2CC[C@H](C2)[C@H]1C1CC1` (single isomer, unassigned) [Compound 110-P2], for which the “WT ECMax” value in experiment [1] is given as −12.31%. In addition, the ECMax in experiment [2] is −47.09%.

For the compound `CC(C)C[C@@H]1[C@H]2CC[C@H](C2)[C@H]1N.Cl` (single isomer, unassigned) [Compound 111-P1], in experiment [1], the concentration for a half-maximal effect (EC50) is greater than 32 µM and the “WT ECMax” value is recorded as −10.33%. For the same compound, in experiment [2], the EC50 was greater than 32 µM and the ECMax is reported as −12.73%.

As to `CC(C)C[C@H]1[C@@H]2CC[C@@H](C2)[C@@H]1N.Cl` (single isomer, unassigned) [Compound 111-P2], in experiment [1], the EC50 is greater than 32 µM and the “WT ECMax” value is on record as −9.06%. For the same compound, in experiment [2], the concentration for a half-maximal effect (EC50) is greater than 32 µM and the ECMax is reported as −11.51%.
